The values that follow come from patent US7807630B2, “Targeting of Notch3 receptor function for cancer therapy” (Vanderbilt University, priority 2007, dated 2010).

Experiment [1] concerns HCC2429 cells. The experiment in a line: Sensitivity to the EGFR tyrosine kinase inhibitor AG1478 with and without Notch3 inhibition (DN construct). It counts as cell-based, human. From the text: (§1) FIGS. 11A-B. Notch3 modulates the EGF pathway and increases sensitivity to an EGFr inhibitor. (FIG. 11A) In HCC2429, inhibition of the Notch3 pathway increases sensitivity to AG1478 nearly 40-fold. […] (FIG. 11B) A similar observation is made in H460 when the inventors combine AG1478 with L-685,458, a γ-secretase inhibitor, further supporting the hypothesis that EGF cooperates with the Notch pathway in oncogenesis.
(§2) EGFr Inhibitors Enhance the Anti-proliferation Effect of Notch3 Inhibition. […] Based on existing literature and their observations, the inventors hypothesized that Notch3 acts synergistically with the EGFR pathway in the promotion and the survival of lung cancer cells and that combining inhibitors of both pathways will have synergistic therapeutic value. To test this hypothesis, the inventors examined whether inhibiting the Notch3 pathway increases tumor inhibition when lung cancer cells are treated with an EGFR tyrosine kinase inhibitor, AG1478. […] Synergism can also be observed when the γ-secretase inhibitor L-685,458 is added to AG1478 (FIG. 11B). […] From a therapeutic standpoint, Notch3 is a good target for therapeutic intervention both alone and in combination with growth factor receptor inhibitors.

For another experiment, the target named is H460. Description: Sensitivity to AG1478 with and without Notch3 inhibition (DN construct or γ-secretase inhibitor). The format is cell-based, human.
From the text: as §1, §2

The next experiment relates to HCC2429 xenografts. The experiment in a line: MRK003 treatment of subcutaneous HCC2429 xenografts. It counts as in vivo, mice. Here is the method: (FIG. 8A) Xenografts injected with HCC2429 were treated with MRK003 once the tumors became palpable. After 2 weeks of treatment, the inventors observed about a 50% reduction in tumor size. […] Histological examination of resected tumors from xenografts at the end of treatment.
To assess the effect of pharmacologically inhibiting Notch activation in vivo, the inventors treated subcutaneous xenografts with MRK003, a γ-secretase inhibitor from Merck, Inc. & Co. Based on the manufacturer's recommended dose, the mice were treated with 100 mg/kg orally for 3 consecutives days per week once the tumors were palpable. At the end of a 2-week treatment, the animals were then euthanized, and the tumors were harvested.

Experiment [2] relates to HCC2429 lung cancer cell line. The experiment in a line: Soft-agar colony assay, MRK003 with AG1478. It counts as cell-based, human.
From the text: FIGS. 12A-B. In HCC2429 lung cancer cell line, Notch inhibitor MRK003 enhances the effect of EGFR inhibitor AG1478 on colony formation in soft agar. […] (FIG. 12B) Graph depicts the quantitative decrease in colony formation.
as §2

Experiment [3] has as its system HCC2429 cells. The experiment in a line: Cell survival with MRK003 in HCC2429 clones expressing Notch3 siRNA. The format is cell-based, human. The note with it: HCC2429 clones with loss of Notch3 (siRNA-N3). The method, then:
HCC2429 cells are sensitive to GSI, and the sensitivity increases in low serum, similarly to that observed with clones expressing the DN construct. Tumor cells treated with DMSO alone had no change in cell viability. (FIG. 7B) Inhibition of S3 proteolytic processing results in the decrease of Notch3 intracellular domain (N3ICD) and accumulation of S2 product (N3ΔE) after 3 hours. (FIG. 7C) In this experiment, HCC2429 was stably transfected with plasmid vector expressing Notch3 siRNA.
A γ-Secretase Inhibitor Reduces Proliferation in Lung Cancer Cells. Proteolytic processing of Notch receptors is required for activation. As previously described, three proteolytic cleavage sites are involved in enabling Notch signaling. In the final step, the membrane-associated Notch fragment is cleaved within its transmembrane domain by a γ-secretase-containing protein complex. Mammalian presenilins (PS-1 and PS-2) are polytopic transmembrane proteins that appear to function as aspartyl proteases within a multiprotein, γ-secretase complex (Wolfe and Kopan, 2004). Presenilins provide the active site of the proteolytic activity. This last cleavage releases the Notch intracellular domain, initiating CBF-1-mediated signaling. […]

Experiment [4] deals with Notch3-dependent gene Hey1. Description: Hey1 transcription by real-time RT-PCR after peptide treatment. The format is cell-based, human.
In another experiment the test system is HCC2429. Description: Apoptosis by annexin V labelling and flow cytometry after Notch3 peptide treatment. The format is cell-based, human. The settings on record: HCC2429, compared to control. The method, then: (FIG. 14A) HCC2429 was treated with Notch3 peptides N16, N17, N102, N103, N132. […] MRK003-treated cell is used as positive control. After treatment, cells were labeled with annexin V and detected using flow cytometry. […] MRK003-treated cells were used as positive control. Sequences N16: CFNTLGGHS, N17: CVCVNGWTGES, N102: CATAV, N103: CFHGAT, N132: CLNGGS. […]
In general terms: Flow cytometry measures light scatter and fluorescence of single cells or particles in a stream.

The next experiment has as its target T1, Jagged1 (Homo sapiens, UniProt P78504).
T1 construct: expressed in transfected cells; host or cells: HEK cells
The experiment in a line: Streptavidin pull-down of peptides from Jagged1-HA transfected HEK cells, anti-HA immunoblot. It counts as binding. The note with it: HEK cells transfected with Jagged1-HA, anti-HA blot. Here is the method: FIG. 15. […] HEK cells were transfected with Jagged1-HA and treated with Notch3 peptides. The peptides were then immunoprecipitated from cell lysate with streptavidin beads and immunoblotted with anti-HA antibody. No: no input; C: control peptide. Sequences N16: CFNTLGGHS, N17: CVCVNGWTGES, N102: CATAV, N103: CFHGAT, N132: CLNGGS.
(§3) Each of 155 different peptides were assayed in quadruplicate, and only those peptides that produced a significant increase of fluorescence signal in all 4 wells were considered potentially positive or capable of inducing apoptosis. The bar graphs here reflect fluorescence counts. […] The peptides were then immunoprecipitated from cell lysate with streptavidin beads and immunoblotted with anti-HA antibody.
In general terms: Immunoblotting shows a protein as a band on a membrane.

Experiment [5] in a line: Peptide screen for apoptosis by Annexin V staining using an FMAT system. The format is cell-based. The settings on record: FMAT screen of 155 peptides, quadruplicate. The method, then:
FIG. 13. […] Each of 155 different peptides were assayed in quadruplicate, and only those peptides that produced a significant increase of fluorescence signal in all 4 wells were considered potentially positive or capable of inducing apoptosis. The bar graphs here reflect fluorescence counts. Sequences N102: CATAV, N103: CFHGAT, N105: CVSNP, N132: CLNGGS.
as §3

A short description of experiment [6]: Apoptosis (percentage of annexin V positive cells) after Fc-fusion protein treatment. It counts as cell-based. The note with it: 40 hrs treatment, compared to control and Fc control. The method, then: […] […] Apoptosis was determined by percentage of annexin V positive cells. Sequences N16: CFNTLGGHS, N17: CVCVNGWTGES, N132: CLNGGS.

Entries after “also recorded” stand apart in the source; their conditions may differ. Where no end group is shown, it is not given here.

T1 sequence (P78504 34-1218, species assumed): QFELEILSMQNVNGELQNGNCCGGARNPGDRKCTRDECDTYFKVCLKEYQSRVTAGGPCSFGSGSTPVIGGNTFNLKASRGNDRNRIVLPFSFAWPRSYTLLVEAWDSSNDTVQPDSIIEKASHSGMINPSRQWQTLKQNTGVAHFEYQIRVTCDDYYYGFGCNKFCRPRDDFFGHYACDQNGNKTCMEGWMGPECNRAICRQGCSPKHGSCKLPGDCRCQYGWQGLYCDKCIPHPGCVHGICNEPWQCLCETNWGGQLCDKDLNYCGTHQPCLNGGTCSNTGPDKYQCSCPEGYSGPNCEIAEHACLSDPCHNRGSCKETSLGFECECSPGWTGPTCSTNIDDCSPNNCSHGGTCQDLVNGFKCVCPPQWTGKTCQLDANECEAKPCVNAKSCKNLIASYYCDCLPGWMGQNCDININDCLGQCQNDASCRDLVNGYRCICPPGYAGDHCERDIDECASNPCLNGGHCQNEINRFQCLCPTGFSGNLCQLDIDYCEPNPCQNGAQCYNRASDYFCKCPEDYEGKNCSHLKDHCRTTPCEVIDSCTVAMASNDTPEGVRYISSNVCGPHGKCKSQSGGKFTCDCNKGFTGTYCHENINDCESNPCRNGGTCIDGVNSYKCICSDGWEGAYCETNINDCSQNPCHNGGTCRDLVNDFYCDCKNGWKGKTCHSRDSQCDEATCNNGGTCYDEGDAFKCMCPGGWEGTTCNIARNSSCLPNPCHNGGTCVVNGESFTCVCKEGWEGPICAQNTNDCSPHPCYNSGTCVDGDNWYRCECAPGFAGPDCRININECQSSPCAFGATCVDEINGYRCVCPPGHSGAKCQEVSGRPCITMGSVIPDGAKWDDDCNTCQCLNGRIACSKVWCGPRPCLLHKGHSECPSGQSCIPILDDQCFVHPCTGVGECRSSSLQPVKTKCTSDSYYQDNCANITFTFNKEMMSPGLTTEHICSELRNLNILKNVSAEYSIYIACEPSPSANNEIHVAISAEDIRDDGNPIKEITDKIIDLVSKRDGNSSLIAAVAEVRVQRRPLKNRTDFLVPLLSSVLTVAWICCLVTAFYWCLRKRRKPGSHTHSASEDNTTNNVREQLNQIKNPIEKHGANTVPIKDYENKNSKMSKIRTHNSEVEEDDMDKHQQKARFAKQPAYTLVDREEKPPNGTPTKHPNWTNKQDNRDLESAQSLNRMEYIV

With `COc1cc2ncnc(Nc3cccc(Cl)c3)c2cc1OC` [AG1478], in the experiment on HCC2429 cells [1] (HCC2429, DN construct versus control), the “increase in sensitivity to AG1478 upon inhibition of the Notch3 pathway” value stood at 40 fold. The IC50 – broadly, the point on the concentration scale where inhibition reaches its midpoint – stood at 8.3 µM in the experiment on HCC2429 cells [1] (HCC2429, EGF-supplemented media, without Notch3 inhibition); 0.2 µM in the experiment with HCC2429 cells [1] (HCC2429 clones transfected with the DN (dominant-negative Notch3) construct, EGF-supplemented media); 23.8 µM on H460 (H460, without Notch3 inhibition); 12.1 µM on H460 (H460 with inhibition of the Notch3 pathway). Moreover, the “reduction of cancer cell survival upon inhibition of the Notch3 pathway” value with H460 (H460 treated with AG1478) is on record as “approximately two-fold”.

On to `CC(C)C[C@H](NC(=O)[C@H](Cc1ccccc1)C[C@@H](O)[C@H](Cc1ccccc1)NC(=O)OC(C)(C)C)C(=O)N[C@@H](Cc1ccccc1)C(N)=O` [L-685,458], for which the “combined effect of L-685,458 added to AG1478” value in the experiment with H460 (H460 (FIG. 11B)) is on record as “Synergism”.

For `O=S1(=O)N[C@@]2(CN1CC(F)(F)F)[C@@H]1CC[C@H]2Cc2ccc(/C=C/CN3CCC(C(F)(F)F)CC3)cc2C1` [MRK003], the tumor size result with HCC2429 xenografts (100 mg/kg orally, 3 consecutive days per week, end of 2-week treatment) is recorded as “reduction of tumor size”. Also, in the experiment with HCC2429 xenografts (HCC2429 xenografts, 100 mg/kg orally, 3 consecutive days per week, after 2 weeks of treatment), the “reduction in tumor size” value is approximately 50%. In addition, the “histological examination of resected tumors” value in the experiment on HCC2429 xenografts (end of treatment, compared to control) was “Marked necrosis”. The “activated Notch3 (N3ICD) in tumor” value in the experiment with HCC2429 xenografts (xenograft tumors treated with MRK003) is on record as “reduction in activated Notch3 (N3ICD); also recorded: Loss of activated Notch3 (N3ICD)”. Further, the “colony formation in soft agar” value in [2] (HCC2429, MRK003 alone) is recorded as “decreases colony formation”. The “colony formation in soft agar, combination with EGFR inhibitor AG1478” value in experiment [2] (HCC2429, MRK003 combined with AG1478) was “additive effects; also recorded: enhances the effect of AG1478 on growth”. The “cell survival when treated with MRK003” value in the experiment with HCC2429 cells [3] is given as “no loss in cell survival”.

In the case of CATAV [N102, Notch3 peptide], the “transcription of Notch3-dependent gene Hey1” value (from here on “transcription”) in experiment [4] is reported as “reduced transcription of Notch3-dependent gene Hey1”. The “apoptosis (annexin V, flow cytometry)” value in the experiment on HCC2429 is recorded as “Induction of apoptosis”. Also, the “binding to ligand Jagged1” value with Jagged1 is reported as “binding to ligand Jagged1”. Also, in experiment [5], the “apoptosis by Annexin V staining (fluorescence counts)” value (“apoptosis by Annexin V staining” below) is “induce apoptosis”.

Consider CFHGAT [N103, Notch3 peptide], for which the “transcription” value in experiment [4] is “reduced transcription of Notch3-dependent gene Hey1”. Also, the “apoptosis (annexin V, flow cytometry)” value in the experiment with HCC2429 was “Induction of apoptosis”. The “binding to ligand Jagged1” value in the experiment with Jagged1 is given as “binding to ligand Jagged1”. Besides, the “apoptosis by Annexin V staining” value in experiment [5] was “induce apoptosis”.

As to CFNTLGGHS [N16, Notch3 peptide], the “transcription” value in experiment [4] is on record as “reduced transcription of Notch3-dependent gene Hey1”. For the same compound, the “apoptosis (annexin V, flow cytometry)” value in the experiment with HCC2429 is recorded as “Induction of apoptosis”. Further, in the experiment with Jagged1, the “binding to ligand Jagged1” value is on record as “binding to ligand Jagged1”.

Consider CLNGGS [N132, Notch3 peptide], for which the “transcription” value in experiment [4] was “reduced transcription of Notch3-dependent gene Hey1”. For the same compound, the “apoptosis (annexin V, flow cytometry)” value in the experiment with HCC2429 is given as “Induction of apoptosis”. For the same compound, the “binding to ligand Jagged1” value in the experiment with Jagged1 is recorded as “binding to ligand Jagged1”. Besides, in experiment [5], the “apoptosis by Annexin V staining” value is given as “induce apoptosis”.

With CVCVNGWTGES [N17, Notch3 peptide], the “transcription” value in experiment [4] is recorded as “reduced transcription of Notch3-dependent gene Hey1; also recorded: best reduction in Hey1 transcription”. Further, in the experiment on HCC2429, the “apoptosis (annexin V, flow cytometry)” value was “Induction of apoptosis; also recorded: highest apoptotic activity”. The “binding to ligand Jagged1” value with Jagged1 is given as “binding to ligand Jagged1”.

In the case of CVSNP [N105, Notch3 peptide], the “apoptosis by Annexin V staining” value in experiment [5] was “induce apoptosis”.

Regarding “N16-17-Fc: Purified recombinant Fc-fusion Notch3 protein with N16-17 sequences (CFNTLGGHSCVCVNGWTGES; cysteine pairing not given here; also: Fc fusion (dimerising Fc left off))”, the “apoptosis (percentage of annexin V positive cells)” value in [6] is “induces apoptosis”.
